One block for each compound: values may come before it.
Experiments:
[1] = target: Protein cereblon/Histone acetyltransferase p300 (Homo sapiens, UniProt Q09472+Q96SW2); experiment: PROTAC activity at p300/CRBN in human U2OS cells assessed as induction of p300 degradation incubated for 24 hrs by Nan-glo HiBiT lytic assay; type: cell-based
[2] = target: Protein cereblon/CREB-binding protein (Homo sapiens, UniProt Q92793+Q96SW2); experiment: PROTAC activity at CBP/CRBN in human U2OS cells assessed as induction of CBP degradation incubated for 24 hrs by Nan-glo HiBiT lytic assay; type: cell-based
Protein cereblon/CREB-binding protein, sequence (Q92793 whole entry): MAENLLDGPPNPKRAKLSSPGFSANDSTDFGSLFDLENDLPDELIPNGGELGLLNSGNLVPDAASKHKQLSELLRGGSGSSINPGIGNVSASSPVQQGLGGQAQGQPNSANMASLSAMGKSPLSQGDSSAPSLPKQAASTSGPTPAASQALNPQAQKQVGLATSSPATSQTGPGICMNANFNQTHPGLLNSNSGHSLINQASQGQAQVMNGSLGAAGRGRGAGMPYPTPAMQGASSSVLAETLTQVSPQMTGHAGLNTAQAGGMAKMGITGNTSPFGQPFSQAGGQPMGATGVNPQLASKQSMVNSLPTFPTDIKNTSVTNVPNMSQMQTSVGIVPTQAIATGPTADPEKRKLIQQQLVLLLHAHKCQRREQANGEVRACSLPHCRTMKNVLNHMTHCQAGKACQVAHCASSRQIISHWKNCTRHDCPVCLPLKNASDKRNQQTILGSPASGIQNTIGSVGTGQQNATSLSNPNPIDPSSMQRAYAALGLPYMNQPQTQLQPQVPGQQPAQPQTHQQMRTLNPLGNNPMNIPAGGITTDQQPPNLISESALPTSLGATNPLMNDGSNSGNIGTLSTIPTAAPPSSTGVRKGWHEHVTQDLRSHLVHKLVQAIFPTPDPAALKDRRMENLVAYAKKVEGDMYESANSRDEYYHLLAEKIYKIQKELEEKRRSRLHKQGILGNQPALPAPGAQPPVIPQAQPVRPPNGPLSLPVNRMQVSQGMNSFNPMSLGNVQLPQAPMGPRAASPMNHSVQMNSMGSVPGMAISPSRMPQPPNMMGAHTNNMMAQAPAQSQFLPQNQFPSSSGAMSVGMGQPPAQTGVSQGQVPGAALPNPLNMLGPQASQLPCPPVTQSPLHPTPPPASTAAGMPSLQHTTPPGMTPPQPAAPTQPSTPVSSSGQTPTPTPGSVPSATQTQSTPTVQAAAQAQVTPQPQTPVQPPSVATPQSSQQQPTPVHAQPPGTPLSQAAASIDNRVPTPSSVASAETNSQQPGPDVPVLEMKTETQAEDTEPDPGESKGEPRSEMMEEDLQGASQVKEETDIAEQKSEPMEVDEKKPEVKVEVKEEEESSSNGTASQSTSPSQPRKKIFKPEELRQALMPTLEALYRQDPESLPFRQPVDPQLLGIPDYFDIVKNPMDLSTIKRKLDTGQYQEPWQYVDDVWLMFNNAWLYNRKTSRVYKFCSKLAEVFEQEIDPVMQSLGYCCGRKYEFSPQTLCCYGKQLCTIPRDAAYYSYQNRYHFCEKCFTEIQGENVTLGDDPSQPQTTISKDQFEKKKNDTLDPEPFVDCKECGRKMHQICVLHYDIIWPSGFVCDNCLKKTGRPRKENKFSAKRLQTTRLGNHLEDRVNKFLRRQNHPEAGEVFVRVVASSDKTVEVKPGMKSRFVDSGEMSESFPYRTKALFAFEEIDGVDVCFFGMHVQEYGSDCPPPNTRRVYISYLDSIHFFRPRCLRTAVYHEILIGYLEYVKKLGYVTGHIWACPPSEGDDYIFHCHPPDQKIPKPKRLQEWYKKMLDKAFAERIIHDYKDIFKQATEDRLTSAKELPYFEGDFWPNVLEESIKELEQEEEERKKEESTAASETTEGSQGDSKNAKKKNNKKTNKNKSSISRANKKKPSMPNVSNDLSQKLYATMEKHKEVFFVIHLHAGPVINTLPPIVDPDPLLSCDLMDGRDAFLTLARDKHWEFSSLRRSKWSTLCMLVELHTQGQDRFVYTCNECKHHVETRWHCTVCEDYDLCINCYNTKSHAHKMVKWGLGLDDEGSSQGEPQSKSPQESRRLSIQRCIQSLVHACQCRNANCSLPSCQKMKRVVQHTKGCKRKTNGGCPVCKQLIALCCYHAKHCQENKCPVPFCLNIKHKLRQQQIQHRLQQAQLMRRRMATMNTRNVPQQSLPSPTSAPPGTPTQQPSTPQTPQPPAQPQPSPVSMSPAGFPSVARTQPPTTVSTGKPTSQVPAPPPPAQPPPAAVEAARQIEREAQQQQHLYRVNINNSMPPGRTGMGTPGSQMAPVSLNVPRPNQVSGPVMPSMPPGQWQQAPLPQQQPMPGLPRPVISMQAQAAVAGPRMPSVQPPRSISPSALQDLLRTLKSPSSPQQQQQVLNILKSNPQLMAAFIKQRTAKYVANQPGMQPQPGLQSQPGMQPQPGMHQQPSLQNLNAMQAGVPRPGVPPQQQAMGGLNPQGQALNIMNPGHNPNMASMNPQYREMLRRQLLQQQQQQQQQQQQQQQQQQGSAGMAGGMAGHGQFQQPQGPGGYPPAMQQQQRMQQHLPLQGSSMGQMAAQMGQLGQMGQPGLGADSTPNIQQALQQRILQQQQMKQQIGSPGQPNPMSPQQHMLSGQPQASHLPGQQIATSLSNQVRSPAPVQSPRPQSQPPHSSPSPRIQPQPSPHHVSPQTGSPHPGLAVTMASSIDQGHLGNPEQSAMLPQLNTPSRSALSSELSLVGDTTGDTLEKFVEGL
Protein cereblon/CREB-binding protein, sequence (Q96SW2 whole entry): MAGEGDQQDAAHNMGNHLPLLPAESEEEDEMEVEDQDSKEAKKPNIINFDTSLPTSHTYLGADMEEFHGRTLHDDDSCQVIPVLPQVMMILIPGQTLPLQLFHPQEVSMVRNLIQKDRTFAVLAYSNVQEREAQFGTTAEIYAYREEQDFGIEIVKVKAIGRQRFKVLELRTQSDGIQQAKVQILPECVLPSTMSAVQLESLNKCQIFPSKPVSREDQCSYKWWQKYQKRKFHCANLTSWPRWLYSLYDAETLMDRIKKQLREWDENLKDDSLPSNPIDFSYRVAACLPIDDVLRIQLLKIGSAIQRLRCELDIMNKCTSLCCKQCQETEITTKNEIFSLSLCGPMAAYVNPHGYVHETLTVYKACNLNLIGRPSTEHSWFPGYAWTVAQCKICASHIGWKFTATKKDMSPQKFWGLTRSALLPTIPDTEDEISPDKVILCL

[3] = test system: VCaP; experiment: Antiproliferative activity against human VCaP cells assessed as cell growth inhibition incubated for 4 days by celtiter-glo luminescent assay; details: 96 h
[4] = test system: LNCaP; experiment: Antiproliferative activity against human LNCaP cells assessed as cell growth inhibition incubated for 4 days by celtiter-glo luminescent assay; details: 96 h
[5] = target: Bromodomain-containing protein 4 (Homo sapiens, UniProt O60885); experiment: Binding affinity to BRD4 (unknown origin) assessed as dissociation constant by ITC analysis
[6] = test system: CWR22R; experiment: Antiproliferative activity against human 22Rv1 cells assessed as cell growth inhibition incubated for 4 days by celtiter-glo luminescent assay; details: 22Rv1, 96 h
[7] = target: Histone acetyltransferase p300 (Homo sapiens, UniProt Q09472); experiment: Binding affinity to p300 (unknown origin) assessed as dissociation constant by ITC analysis
[8] = target: CREB-binding protein (Homo sapiens, UniProt Q92793); experiment: Binding affinity to CBP (unknown origin) assessed as dissociation constant by ITC analysis
CREB-binding protein, sequence (Q92793 whole entry): as the sequence (Q92793 whole entry) above

[9] = Drug concentration in rat plasma at 3 mg/kg, po measured at 4 hrs by LC-MS/MS analysis; type: ADME, organism-based
[10] = Metabolic stability in human liver microsome assessed as half life measured upto 60 mins in presence of NADPH by LC-MS/MS analysis; type: ADME; details: liver microsomes
[11] = Drug concentration in rat plasma at 3 mg/kg, po measured at 15 mins by LC-MS/MS analysis; type: ADME, organism-based
[12] = Drug concentration in rat plasma at 3 mg/kg, po measured at 6 hrs by LC-MS/MS analysis; type: ADME, organism-based
[13] = Drug concentration in rat plasma at 3 mg/kg, po measured at 30 mins by LC-MS/MS analysis; type: ADME, organism-based
[14] = Metabolic stability in mouse liver microsome assessed as half life measured upto 60 mins in presence of NADPH by LC-MS/MS analysis; type: ADME; details: liver microsomes
[15] = Drug concentration in rat plasma at 3 mg/kg, po measured at 5 mins by LC-MS/MS analysis; type: ADME, organism-based
[16] = Drug concentration in rat plasma at 3 mg/kg, po measured at 2 hrs by LC-MS/MS analysis; type: ADME, organism-based
[17] = Half life in Sprague-Dawley rat at 1 mg/kg, iv measured upto 24 hrs by LC-MS/MS analysis; type: ADME, organism-based; details: in vivo
[18] = Metabolic stability in rat liver microsome assessed as half life measured upto 60 mins in presence of NADPH by LC-MS/MS analysis; type: ADME; details: liver microsomes
[19] = AUC (0 to t) in Sprague-Dawley rat at 1 mg/kg, iv measured upto 24 hrs by LC-MS/MS analysis; type: ADME, organism-based; details: in vivo
[20] = Drug concentration in rat plasma at 3 mg/kg, po measured at 1 hr by LC-MS/MS analysis; type: ADME, organism-based
[21] = Volume of distribution at steady state in Sprague-Dawley rat at 1 mg/kg, iv measured upto 24 hrs by LC-MS/MS analysis; type: ADME, organism-based; details: in vivo
[22] = Drug concentration in rat plasma at 3 mg/kg, po measured at 24 hrs by LC-MS/MS analysis; type: ADME, organism-based

SMILES: N#Cc1ccc(O[C@H]2CC[C@H](NC(=O)c3ccc(N4CCC(CN5CCN(c6cc7c(cc6F)C(=O)N(C6CCC(=O)NC6=O)C7=O)CC5)CC4)nn3)CC2)cc1Cl (some centres not stated) [BAVDEGALUTAMIDE]
IC50 [3]: 125 nM

SMILES: CC(=O)N1CCc2c(c(N3CCCc4cc(-c5cnn(C)c5)c(C(F)F)cc43)nn2C2CCOCC2)C1
IC50 [4]: > 1000 nM
IC50 [3]: > 1000 nM
Kd [5]: 200 nM
IC50 [6]: > 1000 nM
Kd [7]: 1.3 nM
Kd [8]: 1.1 nM

SMILES: CC(=O)N1CCc2c(c(N3CCCc4cc(-c5cnn(C)c5)c(C(F)F)cc43)nn2C2CCN(C(=O)N3Cc4cc5c(cc4C3)C(=O)N(C3CCC(=O)NC3=O)C5=O)CC2)C1 (configuration not stated)
DC50 [1]: > 1000 nM
DC50 [2]: > 1000 nM

SMILES: CNC(=O)c1ccc(N2C(=S)N(c3ccc(C#N)c(C(F)(F)F)c3)C(=O)C2(C)C)cc1F [ENZALUTAMIDE]
IC50 [3]: > 1000 nM
IC50 [6]: > 1000 nM

SMILES: CC(=O)N1CCc2c(c(N3CCCc4cc(-c5cnn(C)c5)c(C(F)F)cc43)nn2C2CCN(CC(=O)N3Cc4cc5c(cc4C3)C(=O)N(C3CCC(=O)NC3=O)C5=O)CC2)C1 (configuration not stated)
DC50 [1]: > 1000 nM
DC50 [2]: > 1000 nM

SMILES: CC(=O)N1CCc2c(c(N3CCCc4ccc(C(F)F)cc43)nn2C2CCN(C(=O)CN3Cc4cc5c(cc4C3)C(=O)N(C3CCC(=O)NC3=O)C5=O)CC2)C1 (configuration not stated)
concentration at 4 h [9]: 0.7 ng/mL
half-life [10]: > 1 h
concentration at 0.25 h [11]: 0.5 ng/mL
concentration at 6 h [12]: 0.9 ng/mL
concentration at 0.5 h [13]: 0.4 ng/mL
half-life [14]: > 1 h
concentration at 5 min [15]: 1 ng/mL
concentration at 2 h [16]: 0.4 ng/mL
t1/2 [17]: 1.1 h
DC50 [1]: 204 nM
half-life [18]: > 1 h
AUC(0-t) at 24 h [19]: 88.7 ng·h/mL
concentration at 1 h [20]: 0.3 ng/mL
Vdss [21]: 1.7 L/kg
DC50 [2]: 519 nM

SMILES: CNC(=O)N1CCc2c(c(N3CCCc4cc(-c5cnn(C)c5)c(C(F)F)cc43)nn2C2CCOCC2)C1
Kd [5]: 4.6 nM
Kd [7]: 1.2 nM
Kd [8]: 0.9 nM

SMILES: CC(=O)N1CCc2c(c(N3CCCc4cc(-c5cnn(C)c5)c(C(F)F)cc43)nn2C2CCN(C(=O)CN3Cc4cc5c(cc4C3)C(=O)N(C3CCC(=O)NC3=O)C5=O)CC2)C1 (configuration not stated)
half-life [10]: 0.163 h
concentration at 0.25 h [11]: 1.9 ng/mL
concentration at 24 h [22]: 4.6 ng/mL
half-life [14]: 0.317 h
concentration at 5 min [15]: 3.7 ng/mL
t1/2 [17]: 1.3 h
half-life [18]: > 1 h
AUC(0-t) at 24 h [19]: 166 ng·h/mL
Vdss [21]: 6.3 L/kg

SMILES: CC(=O)N1CCc2c(c(N3CCCc4cc(-c5cnn(C)c5)c(C(F)F)cc43)nn2C2CCN(C(=O)CCN3Cc4cc5c(cc4C3)C(=O)N(C3CCC(=O)NC3=O)C5=O)CC2)C1 (configuration not stated)
DC50 [1]: > 1000 nM
DC50 [2]: > 1000 nM

SMILES: CO[C@H]1CC[C@H](n2c([C@@H]3CCCC(=O)N3c3ccc(F)c(F)c3)nc3cc(-c4c(C)noc4C)ccc32)CC1 [INOBRODIB]
IC50 [3]: 195 nM

Now from value to compound:

DC50 [1]: 33 nM
DC50 [2]: 24 nM
SMILES: CC(=O)N1CCc2c(c(N3CCCc4cc(-c5cccs5)c(C(F)F)cc43)nn2C2CCN(C(=O)CN3Cc4cc5c(cc4C3)C(=O)N(C3CCC(=O)NC3=O)C5=O)CC2)C1 (configuration not stated)

DC50 [1]: 108 nM
DC50 [2]: 362 nM
SMILES: CC(=O)N1CCc2c(c(N3CCCc4cc(-c5cnn(C)c5)c(C(F)F)cc43)nn2C2CCN(C(=O)CCCCCN3Cc4cc5c(cc4C3)C(=O)N(C3CCC(=O)NC3=O)C5=O)CC2)C1 (configuration not stated)

DC50 [1]: 40 nM
DC50 [2]: 57 nM
SMILES: CC(=O)N1CCc2c(c(N3CCCc4cc(C(C)C)c(C(F)F)cc43)nn2C2CCN(C(=O)CN3Cc4cc5c(cc4C3)C(=O)N(C3CCC(=O)NC3=O)C5=O)CC2)C1 (configuration not stated)

DC50 [1]: 46 nM
DC50 [2]: 168 nM
SMILES: CC(=O)N1CCc2c(c(N3CCCc4cc(-c5cnn(C)c5)c(C(F)F)cc43)nn2C2CCN(C(=O)CCCCN3Cc4cc5c(cc4C3)C(=O)N(C3CCC(=O)NC3=O)C5=O)CC2)C1 (configuration not stated)

DC50 [1]: 18 nM
DC50 [2]: 89 nM
SMILES: CCc1cc2c(cc1C(F)F)N(c1nn(C3CCN(C(=O)CN4Cc5cc6c(cc5C4)C(=O)N(C4CCC(=O)NC4=O)C6=O)CC3)c3c1CN(C(C)=O)CC3)CCC2 (configuration not stated)

DC50 [1]: 9.6 nM
DC50 [2]: 55 nM
SMILES: CC(=O)N1CCc2c(c(N3CCCc4cc(C)c(C(F)F)cc43)nn2C2CCN(C(=O)CN3Cc4cc5c(cc4C3)C(=O)N(C3CCC(=O)NC3=O)C5=O)CC2)C1 (configuration not stated)

DC50 [1]: 105 nM
DC50 [2]: 368 nM
SMILES: CC(=O)N1CCc2c(c(N3CCCc4cc(-c5cnn(C)c5)c(C(F)F)cc43)nn2C2CCN(C(=O)CCCN3Cc4cc5c(cc4C3)C(=O)N(C3CCC(=O)NC3=O)C5=O)CC2)C1 (configuration not stated)

DC50 [1]: 41 nM
DC50 [2]: 36 nM
SMILES: CC(=O)N1CCc2c(c(N3CCCc4cc(-c5ccc(F)cc5)c(C(F)F)cc43)nn2C2CCN(C(=O)CN3Cc4cc5c(cc4C3)C(=O)N(C3CCC(=O)NC3=O)C5=O)CC2)C1 (configuration not stated)

DC50 [1]: 17 nM
DC50 [2]: 64 nM
SMILES: CC(=O)N1CCc2c(c(N3CCCc4cc(Br)c(C(F)F)cc43)nn2C2CCN(C(=O)CN3Cc4cc5c(cc4C3)C(=O)N(C3CCC(=O)NC3=O)C5=O)CC2)C1 (configuration not stated)

DC50 [1]: 39 nM
DC50 [2]: 37 nM
SMILES: CC(=O)N1CCc2c(c(N3CCCc4cc(C5CCCCC5)c(C(F)F)cc43)nn2C2CCN(C(=O)CN3Cc4cc5c(cc4C3)C(=O)N(C3CCC(=O)NC3=O)C5=O)CC2)C1 (configuration not stated)

DC50 [1]: 29 nM
DC50 [2]: 52 nM
SMILES: CC(=O)N1CCc2c(c(N3CCCc4cc(C5CC5)c(C(F)F)cc43)nn2C2CCN(C(=O)CN3Cc4cc5c(cc4C3)C(=O)N(C3CCC(=O)NC3=O)C5=O)CC2)C1 (configuration not stated)

DC50 [1]: 23 nM
DC50 [2]: 31 nM
SMILES: CC(=O)N1CCc2c(c(N3CCCc4cc(-c5ccccc5)c(C(F)F)cc43)nn2C2CCN(C(=O)CN3Cc4cc5c(cc4C3)C(=O)N(C3CCC(=O)NC3=O)C5=O)CC2)C1 (configuration not stated)

Source: ChEMBL document CHEMBL5543112, “Discovery of CBPD-268 as an Exceptionally Potent and Orally Efficacious CBP/p300 PROTAC Degrader Capable of Achieving Tumor Regression” (J Med Chem, 2024)
